Species on record: Rattus norvegicus
Assay: DrugMatrix - Regimen: Daily Repeat
Assay type: toxicity, organism-based, Sprague-Dawley
Set-up: regimen Daily Repeat, gender Male, age 6-8 weeks
Conditions: in vivo, po, route oral GAVAGE, […]; for ABSOLUTE BASOPHIL / ABSOLUTE EOSINOPHIL / ABSOLUTE LYMPHOCYTE / ABSOLUTE MONOCYTE / ABSOLUTE SEGMENTED NEUTROPHIL / BASOPHIL / EOSINOPHIL / ERYTHROCYTE COUNT / HEMATOCRIT / HEMOGLOBIN / LEUKOCYTE COUNT / LYMPHOCYTE / MEAN CORPUSCULAR HEMOGLOBIN / MEAN CORPUSCULAR HEMOGLOBIN CONCENTRATION / MEAN CORPUSCULAR VOLUME / MONOCYTE / NEUTROPHIL / NUCLEATED RED BLOOD CELLS / PLATELET COUNT: tissue Blood; for ALANINE AMINOTRANSFERASE / ALKALINE PHOSPHATASE / ASPARTATE AMINOTRANSFERASE / BLOOD UREA NITROGEN / CARBON DIOXIDE / CHLORIDE / CHOLESTEROL / CREATINE PHOSPHOKINASE / CREATININE / GLUCOSE / LACTATE DEHYDROGENASE / LIPASE / PHOSPHORUS / POTASSIUM / SODIUM / TOTAL BILIRUBIN / TOTAL PROTEIN / URIC ACID: tissue Plasma
[1] = 0 mg/kg, 72 h, dose level Control, time 3 day
[2] = 0 mg/kg, 120 h, dose level Control, time 5 day
[3] = 36 mg/kg, 72 h, dose level Low, time 3 day

## c1ccc2c(c1)Nc1ccccc1S2 [PHENOTHIAZINE]
[1]
  ABSOLUTE BASOPHIL: 0 CELLS/uL
  ABSOLUTE EOSINOPHIL: 0 CELLS/uL
  ABSOLUTE LYMPHOCYTE: 6275.67 CELLS/uL
  ABSOLUTE MONOCYTE: 40.67 CELLS/uL
  ABSOLUTE SEGMENTED NEUTROPHIL: 633.67 CELLS/uL
  BASOPHIL: 0%
  EOSINOPHIL: 0%
  ERYTHROCYTE COUNT: 5.2 x10E6/uL
  HEMATOCRIT: 32.78%
  HEMOGLOBIN: 12.98 G/DL
  LEUKOCYTE COUNT: 6.95 x10E3/uL
  LYMPHOCYTE: 90.17%
  MEAN CORPUSCULAR HEMOGLOBIN: 24.97 pg
  MEAN CORPUSCULAR HEMOGLOBIN CONCENTRATION: 39.62 G/DL
  MEAN CORPUSCULAR VOLUME: 63.03 fL
  MONOCYTE: 0.67%
  NEUTROPHIL: 9.17%
  NUCLEATED RED BLOOD CELLS: 0 /100WBC
  PLATELET COUNT: 1082.83 x10E3/uL
  ALANINE AMINOTRANSFERASE: 69.67 u/L
  ALKALINE PHOSPHATASE: 430.5 u/L
  ASPARTATE AMINOTRANSFERASE: 90.83 u/L
  BLOOD UREA NITROGEN: 13 mg/dL
  CARBON DIOXIDE: 33 mmol/L
  CHLORIDE: 99.17 MEQ/L
  CHOLESTEROL: 70.5 mg/dL
  CREATINE PHOSPHOKINASE: 253.33 u/L
  CREATININE: 0.13 mg/dL
  GLUCOSE: 157.17 mg/dL
  LACTATE DEHYDROGENASE: 85 u/L
  LIPASE: 10 u/L
  PHOSPHORUS: 10.2 mg/dL
  POTASSIUM: 5.78 MEQ/L
  SODIUM: 144.12 MEQ/L
  TOTAL BILIRUBIN: 0.2 mg/dL
  TOTAL PROTEIN: 5.8 G/DL
  URIC ACID: 0.8 mg/dL
[2]
  ABSOLUTE BASOPHIL: 0 CELLS/uL
  ABSOLUTE EOSINOPHIL: 0 CELLS/uL
  ABSOLUTE LYMPHOCYTE: 10431 CELLS/uL
  ABSOLUTE MONOCYTE: 90.5 CELLS/uL
  ABSOLUTE SEGMENTED NEUTROPHIL: 1111.83 CELLS/uL
  BASOPHIL: 0%
  EOSINOPHIL: 0%
  ERYTHROCYTE COUNT: 5.51 x10E6/uL
  HEMATOCRIT: 34.67%
  HEMOGLOBIN: 13.5 G/DL
  LEUKOCYTE COUNT: 11.63 x10E3/uL
  LYMPHOCYTE: 89.67%
  MEAN CORPUSCULAR HEMOGLOBIN: 24.5 pg
  MEAN CORPUSCULAR HEMOGLOBIN CONCENTRATION: 38.95 G/DL
  MEAN CORPUSCULAR VOLUME: 62.87 fL
  MONOCYTE: 0.67%
  NEUTROPHIL: 9.67%
  NUCLEATED RED BLOOD CELLS: 0 /100WBC
  PLATELET COUNT: 1052.67 x10E3/uL
  ALANINE AMINOTRANSFERASE: 54.67 u/L
  ALKALINE PHOSPHATASE: 359.83 u/L
  ASPARTATE AMINOTRANSFERASE: 83 u/L
  BLOOD UREA NITROGEN: 13.5 mg/dL
  CARBON DIOXIDE: 27.17 mmol/L
  CHLORIDE: 98.5 MEQ/L
  CHOLESTEROL: 66.83 mg/dL
  CREATINE PHOSPHOKINASE: 256.17 u/L
  CREATININE: 0.19 mg/dL
  GLUCOSE: 171.33 mg/dL
  LACTATE DEHYDROGENASE: 91.5 u/L
  LIPASE: 10.5 u/L
  PHOSPHORUS: 8.72 mg/dL
  POTASSIUM: 5.34 MEQ/L
  SODIUM: 142.53 MEQ/L
  TOTAL BILIRUBIN: 0.2 mg/dL
  TOTAL PROTEIN: 6.05 G/DL
  URIC ACID: 0.6 mg/dL
[3]
  ABSOLUTE BASOPHIL: 0 CELLS/uL
  ABSOLUTE EOSINOPHIL: 54.67 CELLS/uL
  ABSOLUTE LYMPHOCYTE: 10865.33 CELLS/uL
  ABSOLUTE MONOCYTE: 53.67 CELLS/uL
  ABSOLUTE SEGMENTED NEUTROPHIL: 926.33 CELLS/uL
  BASOPHIL: 0%
  EOSINOPHIL: 0.67%
  ERYTHROCYTE COUNT: 5.23 x10E6/uL
  HEMATOCRIT: 34.4%
  HEMOGLOBIN: 13.4 G/DL
  LEUKOCYTE COUNT: 11.9 x10E3/uL
  LYMPHOCYTE: 91%
  MEAN CORPUSCULAR HEMOGLOBIN: 25.6 pg
  MEAN CORPUSCULAR HEMOGLOBIN CONCENTRATION: 39 G/DL
  MEAN CORPUSCULAR VOLUME: 65.73 fL
  MONOCYTE: 0.33%
  NEUTROPHIL: 8%
  NUCLEATED RED BLOOD CELLS: 0 /100WBC
  PLATELET COUNT: 973 x10E3/uL
  ALANINE AMINOTRANSFERASE: 62.67 u/L
  ALKALINE PHOSPHATASE: 333.33 u/L
  ASPARTATE AMINOTRANSFERASE: 94.33 u/L
  BLOOD UREA NITROGEN: 11.67 mg/dL
  CARBON DIOXIDE: 26.67 mmol/L
  CHLORIDE: 98 MEQ/L
  CHOLESTEROL: 63.67 mg/dL
  CREATINE PHOSPHOKINASE: 272.33 u/L
  CREATININE: 0.28 mg/dL
  GLUCOSE: 138 mg/dL
  LACTATE DEHYDROGENASE: 84 u/L
  LIPASE: 10.33 u/L
  PHOSPHORUS: 10.03 mg/dL
  POTASSIUM: 5.46 MEQ/L
  SODIUM: 142.1 MEQ/L
  TOTAL BILIRUBIN: 0.17 mg/dL
  TOTAL PROTEIN: 5.37 G/DL
  URIC ACID: 0.57 mg/dL

Source: ChEMBL document CHEMBL3885881, “DrugMatrix”
